One experiment has as its target MCL-1 (Homo sapiens (Human), UniProt Q07820). In words: Cell free Mcl-1:Bim affinity assay (fluorescence polarization competition). Format: binding. Particulars: 15 nM MCL-1, 5 nM FITC-Bim, 1 hour at room temperature; class symbols; read-out: BIM_Ki. A digest of the protocol: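 Compounds competed with FITC-labelled Bim peptide (5 nM) for MCL-1 (15 nM) in HEPES/NaCl buffer with 1% DMSO, 1 h at room temperature. Fluorescence polarization (535 nm emission) gave % inhibition versus DMSO and positive controls; IC50 from 10-point curves, converted to Ki by the Nikolovska-Coleska equation.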
For orientation: Polarisation of emitted light reports the rotation of a fluorescent probe.

Another experiment concerns H929 cells. In words: Cell viability assay (H929 10 FBS). Format: cell-based. The following applies: Homo sapiens, NCI-H929, 24 hours, read-out: H929_10FBS IC50. In short, it runs like this:
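H929 cells, 4000/well, in RPMI 1640 with 10% FBS, sodium pyruvate, HEPES and glucose were exposed to compound 24 h at 37 °C. Viability read as luminescence after 30-60 min at RT with CellTiter-Glo or ATPlite 1 Step.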

MCL-1, sequence (Q07820 whole entry): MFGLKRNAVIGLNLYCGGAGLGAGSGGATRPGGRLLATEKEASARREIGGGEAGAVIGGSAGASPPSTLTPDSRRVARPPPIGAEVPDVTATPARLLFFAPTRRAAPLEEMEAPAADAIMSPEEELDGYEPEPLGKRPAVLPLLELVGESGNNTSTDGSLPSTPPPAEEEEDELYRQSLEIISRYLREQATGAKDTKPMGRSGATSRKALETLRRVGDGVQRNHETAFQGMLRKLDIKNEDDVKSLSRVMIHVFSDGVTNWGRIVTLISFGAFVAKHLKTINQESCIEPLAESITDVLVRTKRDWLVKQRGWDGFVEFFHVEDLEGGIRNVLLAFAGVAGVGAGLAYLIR

With `CC1(C)OC/C=C/[C@H](O)[C@@H]2CC[C@H]2CN2C[C@@]3(CCOc4cc(Cl)ccc43)COc3ccc(cc32)S(=O)(=O)NC1=O` [Example 246, (3R,6R,7S,8E,22S)-7′-chloro-7-hydroxy-12,12-dimethyl-15,15-dioxo-spiro[11,20-dioxa-15-thia-1,14-diazatetracyclo[14.7.2.03,6.019,24]pentacosa-8,16,18,24-tetraene-22,4′-chromane]-13-one], the Ki on MCL-1 lay within 1 to 100 nM. Moreover, the IC50 with H929 cells is greater than 1000 nM.

As for `CN(C)C(=O)O[C@H]1/C=C/COC(C)(C)C(=O)NS(=O)(=O)c2ccc3c(c2)N(C[C@@H]2CC[C@H]21)C[C@@]1(CCOc2cc(Cl)ccc21)CO3` [Example 247, [(3R,6R,7S,8E,22S)-7′-Chloro-12,12-dimethyl-135,5-trioxo-spiro[11,20-dioxa-15-thia-1,14-diazatetracyclo[14.7.2.03,6.019,24]pentacosa-8,16,18,24-tetraene-22,4′-chromane]-7-yl] N,N-dimethylcarbamate], the Ki on MCL-1 was less than 1 nM. Besides, the IC50 with H929 cells was less than 500 nM.

With `CC1(C)OC/C=C/[C@H](OC(=O)N2CCOCC2)[C@@H]2CC[C@H]2CN2C[C@@]3(CCOc4cc(Cl)ccc43)COc3ccc(cc32)S(=O)(=O)NC1=O` [Example 248, [(3R,6R,7S,8E,22S)-7′-Chloro-12,12-dimethyl-13,15,15-trioxo-spiro[11,20-dioxa-15-thia-1,14-diazatetracyclo[14.7.2.03,6.019,24]pentacosa-8,16,18,24-tetraene-22,4′-chromane]-7-yl]morpholine-4-carboxylate], the Ki at MCL-1 was less than 1 nM. Also, the IC50 with H929 cells is greater than 1000 nM.

For `CC1(C)OC/C=C/[C@H](O)[C@@H]2CC[C@H]2CN2C[C@]3(COc4ccc(cc42)S(=O)(=O)NC1=O)OCCc1cc(Cl)ccc13` [Example 249, (3R,6R,7S,8E,22R)-6′-Chloro-7-hydroxy-12,12-dimethyl-15,15-dioxo-spiro[11,20-dioxa-15-thia-1,14-diazatetracyclo[14.7.2.03,6.019,24]pentacosa-8,16,18,24-tetraene-22,1′-isochromane]-13-one], on MCL-1, the Ki lay within 1 to 100 nM. Also, the IC50 in the experiment with H929 cells was greater than 1000 nM.

`CN(C)C(=O)O[C@H]1/C=C/COC(C)(C)C(=O)NS(=O)(=O)c2ccc3c(c2)N(C[C@@H]2CC[C@H]21)C[C@]1(CO3)OCCc2cc(Cl)ccc21` [Example 250, [(3R,6R,7S,8E,22R)-6′-Chloro-12,12-dimethyl-13,15,15-trioxo-spiro[11,20-dioxa-15-thia-1,14-diazatetracyclo[14.7.2.03,6.019,24]pentacosa-8,16,18,24-tetraene-22,1′-isochromane]-7-yl] N,N-dimethylcarbamate]: on MCL-1, the Ki was less than 1 nM. Besides, the IC50 with H929 cells was less than 500 nM.

As for `CCOC(=O)N(C)[C@@H]1/C=C/CN(C)C(C)(C)C(=O)NS(=O)(=O)c2ccc3c(c2)N(C[C@@H]2CC[C@H]21)C[C@@]1(CCCc2cc(Cl)ccc21)CO3` [Example 253, Ethyl N-methyl-N-[(3R,6R,7R,8E,22S)-6′-chloro-11,12,12-trimethyl-13,15,15-trioxo-spiro[20-oxa-15-thia-1,11,14-triazatetracyclo[14.7.2.03,6.019,24]pentacosa-8,16(25),17,19(24)-tetraene-22,1′-tetralin]-7-yl]carbamate], the Ki at MCL-1 was 1 to 100 nM. Also, the IC50 in the experiment with H929 cells was greater than 1000 nM.

`COC(=O)N(C)[C@H]1/C=C/COC(C)(C)C(=O)NS(=O)(=O)c2ccc3c(c2)N(C[C@@H]2CC[C@H]21)C[C@@]1(CCCc2cc(Cl)ccc21)CO3` [Example 254, Methyl N-methyl-N-[(3R,6R,7S,8E,22S)-6′-chloro-12,12-dimethyl-13,15,15-trioxo-spiro[11,20-dioxa-15-thia-1,14-diazatetracyclo[14.7.2.03,6.019,24]pentacosa-8,16(25),17,19(24)-tetraene-22,1′-tetralin]-7-yl]carbamate]: the Ki at MCL-1 lay in the range of 1 to 100 nM. For the same molecule, in the experiment on H929 cells, the IC50 is greater than 1000 nM.

Consider `CC(=O)N(C)[C@H]1/C=C/COC(C)(C)C(=O)NS(=O)(=O)c2ccc3c(c2)N(C[C@@H]2CC[C@H]21)C[C@@]1(CCCc2cc(Cl)ccc21)CO3` [Example 255, N-Methyl-N-[(3R,6R,7S,8E,22S)-6′-chloro-12,12-dimethyl-13,15,15-trioxo-spiro[11,20-dioxa-15-thia-1,14-diazatetracyclo[14.7.2.03,6.019,24]pentacosa-8,16(25),17,19(24)-tetraene-22,1′-tetralin]-7-yl]acetamide], for which, at MCL-1, the Ki lay within 1 to 100 nM. The IC50 in the experiment on H929 cells was greater than 1000 nM.

As to `CN([C@H]1/C=C/COC(C)(C)C(=O)NS(=O)(=O)c2ccc3c(c2)N(C[C@@H]2CC[C@H]21)C[C@@]1(CCCc2cc(Cl)ccc21)CO3)S(C)(=O)=O` [Example 256, N-Methyl-N-[(3R,6R,7S,8E,22S)-6′-chloro-12,12-dimethyl-13,15,15-trioxo-spiro[11,20-dioxa-15-thia-1,14-diazatetracyclo[14.7.2.03,6.019,24]pentacosa-8,16(25),17,19(24)-tetraene-22,1′-tetralin]-7-yl]methanesulfonamide], the Ki at MCL-1 lay in the range of 1 to 100 nM. The IC50 with H929 cells was greater than 1000 nM.

In the case of `CN(C)C(=O)N(C)[C@H]1/C=C/COC(C)(C)C(=O)NS(=O)(=O)c2ccc3c(c2)N(C[C@@H]2CC[C@H]21)C[C@@]1(CCCc2cc(Cl)ccc21)CO3` [Example 257, 1,1,3-Trimethyl-3-[(3R,6R,7S,8E,22S)-6′-chloro-12,12-dimethyl-13,15,15-trioxo-spiro[11,20-dioxa-15-thia-1,14-diazatetracyclo[14.7.2.03,6.019,24]pentacosa-8,16(25),17,19(24)-tetraene-22,1′-tetralin]-7-yl]urea], the Ki at MCL-1 lay in the range of 1 to 100 nM. In addition, the IC50 with H929 cells is greater than 1000 nM.

Regarding `CC1(C)OC/C=C/[C@H](OCCN2CC(F)(F)C2)[C@@H]2CC[C@H]2CN2C[C@@]3(CCCc4cc(Cl)ccc43)COc3ccc(cc32)S(=O)(=O)NC1=O` [Example 258, (3R,6R,7S,8E,22S)-6′-Chloro-7-[2-(3,3-difluoroazetidin-1-yl)ethoxy]-12,12-dimethyl-15,15-dioxo-spiro[11,20-dioxa-15-thia-1,14-diazatetracyclo[14.7.2.03,6.019,24]pentacosa-8,16,18,24-tetraene-22,1′-tetralin]-13-one], the Ki at MCL-1 is less than 1 nM. Also, in the experiment on H929 cells, the half-maximal inhibitory concentration (IC50) is less than 500 nM.

For the molecule `CN1CCN(CCO[C@H]2/C=C/COC(C)(C)C(=O)NS(=O)(=O)c3ccc4c(c3)N(C[C@@H]3CC[C@H]32)C[C@@]2(CCCc3cc(Cl)ccc32)CO4)CC1` [Example 259, (3R,6R,7S,8E,22S)-6′-Chloro-12,12-dimethyl-7-[2-(4-methylpiperazin-1-yl)ethoxy]-15,15-dioxo-spiro[11,20-dioxa-15-thia-1,14-diazatetracyclo[14.7.2.03,6.019,24]pentacosa-8,16,18,24-tetraene-22,1′-tetralin]-13-one], on MCL-1, the Ki is less than 1 nM. Further, in the experiment with H929 cells, the IC50 is less than 500 nM.

Take `CO[C@@H]1CCN(CCO[C@H]2/C=C/COC(C)(C)C(=O)NS(=O)(=O)c3ccc4c(c3)N(C[C@@H]3CC[C@H]32)C[C@@]2(CCCc3cc(Cl)ccc32)CO4)C1` [Example 260, (3R,6R,7S,8E,22S)-6′-Chloro-7-[2-[(3R)-3-methoxypyrrolidin-1-yl]ethoxy]-12,12-dimethyl-15,15-dioxo-spiro[11,20-dioxa-15-thia-1,14-diazatetracyclo[14.7.2.03,6.019,24]pentacosa-8,16,18,24-tetraene-22,1′-tetralin]-13-one]: the Ki on MCL-1 is less than 1 nM. Also, in the experiment with H929 cells, the half-maximal inhibitory concentration (IC50) is less than 500 nM.

For the molecule `COC1CN(CCO[C@H]2/C=C/COC(C)(C)C(=O)NS(=O)(=O)c3ccc4c(c3)N(C[C@@H]3CC[C@H]32)C[C@@]2(CCCc3cc(Cl)ccc32)CO4)C1` [Example 261, (3R,6R,7S,8E,22S)-6′-Chloro-7-[2-(3-methoxyazetidin-1-yl)ethoxy]-12,12-dimethyl-15,15-dioxo-spiro[11,20-dioxa-15-thia-1,14-diazatetracyclo[14.7.2.03,6.019,24]pentacosa-8,16,18,24-tetraene-22,1′-tetralin]-13-one], the Ki on MCL-1 is less than 1 nM. In addition, in the experiment on H929 cells, the IC50 is less than 500 nM.

Consider `CC1(C)OC/C=C/[C@H](OCCN2CCC2)[C@@H]2CC[C@H]2CN2C[C@@]3(CCCc4cc(Cl)ccc43)COc3ccc(cc32)S(=O)(=O)NC1=O` [Example 262, (3R,6R,7S,8E,22S)-7-[2-(Azetidin-1-yl)ethoxy]-6′-chloro-12,12-dimethyl-15,15-dioxo-spiro[11,20-dioxa-15-thia-1,14-diazatetracyclo[14.7.2.03,6.019,24]pentacosa-8,16,18,24-tetraene-22,1′-tetralin]-13-one], for which the Ki on MCL-1 was less than 1 nM. Moreover, in the experiment with H929 cells, the 50% inhibitory concentration (IC50) is less than 500 nM.

Regarding `CC1(C)OC/C=C/[C@H](OCCN2CCCCC2)[C@@H]2CC[C@H]2CN2C[C@@]3(CCCc4cc(Cl)ccc43)COc3ccc(cc32)S(=O)(=O)NC1=O` [Example 263, (3R,6R,7S,8E,22S)-6′-Chloro-12,12-dimethyl-15,15-dioxo-7-[2-(1-piperidyl)ethoxy]spiro[11,20-dioxa-15-thia-1,14-diazatetracyclo[14.7.2.03,6.019,24]pentacosa-8,16,18,24-tetraene-22,1′-tetralin]-13-one], the Ki on MCL-1 was less than 1 nM. Besides, in the experiment with H929 cells, the IC50 was less than 500 nM.

As for `CC1(C)OC/C=C/[C@H](OCCN2CC[C@@H](F)C2)[C@@H]2CC[C@H]2CN2C[C@@]3(CCCc4cc(Cl)ccc43)COc3ccc(cc32)S(=O)(=O)NC1=O` [Example 264, (3R,6R,7S,8E,22S)-6′-Chloro-7-[2-[(3R)-3-fluoropyrrolidin-1-yl]ethoxy]-12,12-dimethyl-15,15-dioxo-spiro[11,20-dioxa-15-thia-1,14-diazatetracyclo[14.7.2.03,6.019,24]pentacosa-8,16,18,24-tetraene-22,1′-tetralin]-13-one], the Ki on MCL-1 was less than 1 nM. Also, in the experiment on H929 cells, the IC50 was less than 500 nM.

As a reminder, the IC50 is the midpoint of a concentration-inhibition curve.

The values are drawn from patent publication US11130769B2 (Prelude Therapeutics Incorporated, priority 2018, dated 2021).
